Values joined by “and” are separate entries in the source; they are usually repeats but may differ in a detail not shown here. Equal values may be shown once.
Assays:
[1] = Log P (n-octanol/water partitioning)
[2] = male, Sprague Dawley, rat, in vivo, sc, 0.5 mg/kg
Protocol: The plasma levels of drugs released into the blood stream were measured in rodent (Sprague Dawley rats) and non-human primates (Macaca fascicularis, cynomolgus monkeys) following single subcutaneous injections of their respective POZ conjugates with different linkers and drug loading wt %.
Male Sprague Dawley naive rats (age 8-9 weeks, weight 200-250 g) were acquired and placed in rat cages and allowed at least 3 days of acclimatization before the start of the dosing. Each test group contained 3 rats. The POZ conjugates were dissolved 5% dextrose injection and the pH of the solution was adjusted to about 4.0 with 0.1 N hydrochloric acid. Each animal received a single subcutaneous (SC) injection of test article solution equivalent to a dose of 1.5-1.6 mg/kg (based in drug equivalents) and at a volume of 1 mL/kg, and into the left flank using a 23 G BD precision glide needle. […] All blood samples were collected in pre-labeled BD Microtainer tubes containing NaF/disodium EDTA, gently mixed and placed in an ice batch. Plasma was harvested by centrifugation at 3000 rpm for 15 minutes at 4° C. Plasma aliquots of 100 μL were collected in separate tubes containing 10 μL of a solution of 3N HCl acid, gently mixed and immediately frozen and stored at −70° C.
The plasma samples were processed by the ‘protein crash’ method using cold acetonitrile.

## C=C(C)[C@@H]1CCC(C)=C[C@H]1c1c(O)cc(CCCCC)cc1O [Cannabidiol, cannabidiol]
[1]; at 25° C., free drug
  Log Poct/wat: 6.1

## CCCCCCC(C)(C)c1cc(O)c2c(c1)OC(C)(C)[C@H]1CC=C(CO)C[C@H]21 [Dexanabinol, dexanabinol]
[1]
  logP: 7.6

## CCCN(CCc1cccs1)[C@H]1CCc2c(O)cccc2C1 [Rotigotine, rotigotine]
[2]
  time to clear the body: less than 24 hours
physchem
  logP: 4.9

## CCCCCc1cc(O)c2c(c1)OC(C)(C)[C@@H]1CCC(C)=C[C@@H]21 [Δ^9-THC, d9-tetrahydrocannabinol]
[1]; free drug, listed as THC
  Log P: 7.2 and 7.0
